Measurements published in ChEMBL document CHEMBL4483862, “Open-source discovery of chemical leads for next-generation chemoprotective antimalarials” (2018).

Tested on: Plasmodium berghei
Assay: Luciferase/luciferin-expressing antifolate-resistant parasites were used to infect a culture of HepG2 cells that were pre-incubated with compounds. Infected hepatocytes emit light due to the luciferase reaction. Assay results are presented as the percent inhibition of light emission compared to control. […]
Assay type: functional
Details: sporozoite; for IC90: read-out: LUCIFERASE INFECTION ASSAY - IC90

SMILES	IC90 [µM]	also measured
CC[n+]1c(/C=C/c2ccc(SC)cc2)ccc2ccccc21	> 7.62	IC50 (PBLUC_HILL_SLOPE 11.6, PBLUC_R_SQUARED 0.0577, read-out: LUCIFERASE INFECTION ASSAY - IC50): > 7.62 µM
CN(C)CCNc1nc(Oc2cccc3ccccc23)c2sccc2n1	> 9.05	IC50 (PBLUC_HILL_SLOPE 11.6, PBLUC_R_SQUARED 0.0493, read-out: LUCIFERASE INFECTION ASSAY - IC50): 8.94 µM
CC(C)(C)c1ccc(-c2n[nH]c(NC(=O)c3ccccc3Cl)c2Br)cc1	> 7.63	IC50 (PBLUC_HILL_SLOPE 11.9, PBLUC_R_SQUARED 0.175, read-out: LUCIFERASE INFECTION ASSAY - IC50): 7.07 µM
CCOc1cccc(-c2cn3c(-c4cccc(CO)c4)cnc3cn2)c1	> 9.55	IC50 (PBLUC_HILL_SLOPE 11.7, PBLUC_R_SQUARED 0.129, read-out: LUCIFERASE INFECTION ASSAY - IC50): 8.63 µM
CCn1c(NC(=O)c2oc3ccccc3c2COC)nc2ccccc21	4.5	IC50 (PBLUC_HILL_SLOPE 11.7, PBLUC_R_SQUARED 0.368, read-out: LUCIFERASE INFECTION ASSAY - IC50): 3.72 µM
CCC(C)NCCCCOc1cc(C(C)C)ccc1C (stereo not given)	> 10	IC50 (PBLUC_HILL_SLOPE 11.7, PBLUC_R_SQUARED 0.0741, read-out: LUCIFERASE INFECTION ASSAY - IC50): > 10 µM
O=C(Nn1cnc2ccccc21)c1ccccc1Nc1ccc(SC(F)F)cc1	> 10	IC50 (PBLUC_HILL_SLOPE 11.6, PBLUC_R_SQUARED 0.0782, read-out: LUCIFERASE INFECTION ASSAY - IC50): 8.68 µM
Cn1nc(C(C)(C)C)cc1C(=O)Nc1ccc2nc(-c3cccnc3)nn2c1	> 10	IC50 (PBLUC_HILL_SLOPE 11.9, PBLUC_R_SQUARED 0.235, read-out: LUCIFERASE INFECTION ASSAY - IC50): > 10 µM
COc1ccccc1C(=O)NCc1cn(Cc2ccccc2)nc1-c1ccccc1	> 10	IC50 (PBLUC_HILL_SLOPE 11.8, PBLUC_R_SQUARED 0.553, read-out: LUCIFERASE INFECTION ASSAY - IC50): 9.21 µM
CCOc1ccc(NS(=O)(=O)c2ccc(NC(=O)c3ccc(OC)c(S(=O)(=O)N4CCCCC4C)c3)cc2)cc1 (stereo not given)	> 10	IC50 (PBLUC_HILL_SLOPE 11.8, PBLUC_R_SQUARED 0.201, read-out: LUCIFERASE INFECTION ASSAY - IC50): 9.44 µM
CC(C)C(=O)Nc1c(-c2ccc(Cl)c(Cl)c2)c(=O)c2ccccc2n1C	3.11	IC50 (PBLUC_HILL_SLOPE 11.7, PBLUC_R_SQUARED 0.375, read-out: LUCIFERASE INFECTION ASSAY - IC50): 2.58 µM
CC(C)Cc1nc2oc3c(NCCN(C)C)ncnc3c2c2c1COC(C)(C)C2	> 8.3	IC50 (PBLUC_HILL_SLOPE 11.6, PBLUC_R_SQUARED 0.0696, read-out: LUCIFERASE INFECTION ASSAY - IC50): 7.66 µM
Nc1ccc(-c2cn3c(-c4ccc(O)cc4)cnc3cn2)cn1	> 10.9	IC50 (PBLUC_HILL_SLOPE 11.6, PBLUC_R_SQUARED 0.257, read-out: LUCIFERASE INFECTION ASSAY - IC50): 10.2 µM
O=[N+]([O-])c1cnc(Sc2nnc(SCC3CC3)s2)s1	> 9.93	IC50 (PBLUC_HILL_SLOPE 11.6, PBLUC_R_SQUARED 0.0358, read-out: LUCIFERASE INFECTION ASSAY - IC50): 9.69 µM
O=C(/C=C/c1csc(-c2ccc(Cl)cc2)n1)c1cccc(O)c1	4.93	IC50 (PBLUC_HILL_SLOPE 11.6, PBLUC_R_SQUARED 0.644, read-out: LUCIFERASE INFECTION ASSAY - IC50): 4.08 µM
CC(=O)c1c(C)[nH]c(C(=O)CSc2c(C)c(C)cc(C)c2C)c1C	> 10	IC50 (PBLUC_HILL_SLOPE 11.6, PBLUC_R_SQUARED 0.344, read-out: LUCIFERASE INFECTION ASSAY - IC50): > 10 µM
c1cncc(-c2nc(Oc3ccc(-c4nnc5n4CCCCC5)cc3)c3ccccc3n2)c1	> 10	IC50 (PBLUC_HILL_SLOPE 11.7, PBLUC_R_SQUARED 0.282, read-out: LUCIFERASE INFECTION ASSAY - IC50): > 10 µM
CC(C)c1ccc(-c2cnc3sc(NC4CCC(O)CC4)nn23)cc1 (stereo not given)	> 9.26	IC50 (PBLUC_HILL_SLOPE 11.9, PBLUC_R_SQUARED 0.449, read-out: LUCIFERASE INFECTION ASSAY - IC50): 8.25 µM
Cn1c(SCC(=O)c2ccc(Cl)cc2)nnc1-c1ccc(C(C)(C)C)cc1	> 8.25	IC50 (PBLUC_HILL_SLOPE 11.7, PBLUC_R_SQUARED 0.0355, read-out: LUCIFERASE INFECTION ASSAY - IC50): > 8.25 µM
O=C(Nc1cccc(F)c1)Nc1ccc2nc(-c3ccoc3)nn2c1	> 10	IC50 (PBLUC_HILL_SLOPE 11.8, PBLUC_R_SQUARED 0.647, read-out: LUCIFERASE INFECTION ASSAY - IC50): 8.63 µM

SMILES	IC90 [µM]	also measured
Cc1c(C(=O)c2ccccc2)oc2ccc(NC(=O)c3ccco3)cc12	> 9.56	IC50 (PBLUC_HILL_SLOPE 11.9, PBLUC_R_SQUARED 0.0568, read-out: LUCIFERASE INFECTION ASSAY - IC50): > 9.56 µM
Cc1cc(C2=NN/C(=N/C3CC3)SC2)c(C)n1-c1cccc(S(=O)(=O)N2CCOCC2)c1	> 10	IC50 (PBLUC_HILL_SLOPE 11.7, PBLUC_R_SQUARED 0.69, read-out: LUCIFERASE INFECTION ASSAY - IC50): 9.28 µM
Cc1cccc(C)c1NC(=O)Nc1nc(C(N)Cc2ccc(C(F)(F)F)cc2)cs1 (stereo not given)	> 7.6	IC50 (PBLUC_HILL_SLOPE 11.8, PBLUC_R_SQUARED 0.0609, read-out: LUCIFERASE INFECTION ASSAY - IC50): 6.88 µM
O=C(Nc1cc(C(F)(F)F)ccc1N1CCOCC1)c1ccc(SCc2cscn2)cc1	> 10	IC50 (PBLUC_HILL_SLOPE 11.6, PBLUC_R_SQUARED 0.493, read-out: LUCIFERASE INFECTION ASSAY - IC50): 8.97 µM
CC(C)(C)c1ccc(C(=O)Nc2cccc(F)c2C#N)cc1	> 11.1	IC50 (PBLUC_HILL_SLOPE 11.7, PBLUC_R_SQUARED 0.257, read-out: LUCIFERASE INFECTION ASSAY - IC50): 9.4 µM
COCCNC(=O)c1nn(CCC(C)C)c2c1CN(C(=O)c1cc(C)n[nH]1)CC2	3.47	IC50 (PBLUC_HILL_SLOPE 11.6, PBLUC_R_SQUARED 0.412, read-out: LUCIFERASE INFECTION ASSAY - IC50): 2.87 µM
Cc1cc(NC(=O)/C=C/c2cn(-c3ccccc3)nc2-c2cccnc2)ccc1N1CCN(C)CC1	4.23	IC50 (PBLUC_HILL_SLOPE 11.7, PBLUC_R_SQUARED 0.29, read-out: LUCIFERASE INFECTION ASSAY - IC50): 3.5 µM
Cc1cc(C)c(NC(=O)CNC(=O)c2ccc(-c3ccccc3)cc2)c(C)c1	> 10	IC50 (PBLUC_HILL_SLOPE 11.6, PBLUC_R_SQUARED 0.0183, read-out: LUCIFERASE INFECTION ASSAY - IC50): > 10 µM
NC(Cc1ccc(Cl)cc1)c1csc(NC(=O)Nc2ccccc2Cc2ccccc2)n1 (stereo not given)	> 7.13	IC50 (PBLUC_HILL_SLOPE 11.7, PBLUC_R_SQUARED 0.713, read-out: LUCIFERASE INFECTION ASSAY - IC50): 6.46 µM
Cc1c(Cl)cc(NC(=O)Nc2ccccc2)c(O)c1Cl	> 10.6	IC50 (PBLUC_HILL_SLOPE 11.8, PBLUC_R_SQUARED 0.519, read-out: LUCIFERASE INFECTION ASSAY - IC50): 9.83 µM
CSc1ccc(-c2cn3c(-c4ccc(C(=O)NC5CC5)cc4)cnc3cn2)cc1	> 8.24	IC50 (PBLUC_HILL_SLOPE 11.7, PBLUC_R_SQUARED 0.658, read-out: LUCIFERASE INFECTION ASSAY - IC50): 7.27 µM
CC(Sc1nc2ccsc2c(=O)n1C)c1ccc(F)cc1 (stereo not given)	> 10	IC50 (PBLUC_HILL_SLOPE 11.9, PBLUC_R_SQUARED 0.0437, read-out: LUCIFERASE INFECTION ASSAY - IC50): > 10 µM
Clc1ccc(N/N=C/Cc2nnnn2-c2ccccc2)cc1	> 10.6	IC50 (PBLUC_HILL_SLOPE 11.7, PBLUC_R_SQUARED 0.117, read-out: LUCIFERASE INFECTION ASSAY - IC50): 10.1 µM
COc1cc(-c2cc3nc(Nc4ccc5c[nH]nc5c4)ccn3n2)cc(OC)c1OC	> 7.92	IC50 (PBLUC_HILL_SLOPE 11.7, PBLUC_R_SQUARED 0.319, read-out: LUCIFERASE INFECTION ASSAY - IC50): 7.27 µM
O=C(Cc1csc(COc2ccc(Cl)cc2)n1)Nc1ccccc1O	> 10	IC50 (PBLUC_HILL_SLOPE 11.8, PBLUC_R_SQUARED 0.113, read-out: LUCIFERASE INFECTION ASSAY - IC50): 9.28 µM
Cc1cc(Cl)ccc1OCCCC(=O)NCCn1c(C)nc2ccccc21	> 10	IC50 (PBLUC_HILL_SLOPE 11.5, PBLUC_R_SQUARED 0.538, read-out: LUCIFERASE INFECTION ASSAY - IC50): 9.27 µM
Cc1cccc(-c2cn3c(-c4ccc(CO)cc4)cnc3cn2)c1C	> 10	IC50 (PBLUC_HILL_SLOPE 11.7, PBLUC_R_SQUARED 0.283, read-out: LUCIFERASE INFECTION ASSAY - IC50): 8.31 µM
Cc1ccc(NC(=O)C2(C)CCN2Cc2ccccc2Cl)cc1O (stereo not given)	> 9.57	IC50 (PBLUC_HILL_SLOPE 11.9, PBLUC_R_SQUARED 0.388, read-out: LUCIFERASE INFECTION ASSAY - IC50): 8.78 µM
COc1cc(-c2cc(-c3ccc(F)c(Cl)c3)cnc2N)ccc1O	> 9.57	IC50 (PBLUC_HILL_SLOPE 11.9, PBLUC_R_SQUARED 0.433, read-out: LUCIFERASE INFECTION ASSAY - IC50): 8.61 µM
CCN(CC)S(=O)(=O)c1ccc(OC(C)C)c(NC(=O)C2=CN3CCS(=O)(=O)N=C3C=C2)c1	4.52	IC50 (PBLUC_HILL_SLOPE 11.8, PBLUC_R_SQUARED 0.349, read-out: LUCIFERASE INFECTION ASSAY - IC50): 3.75 µM
